Data: patent US20250017940A1, “SELECTIVE PEPTIDOMIMETIC MODULATORS OF CAV2.2 (N-TYPE) VOLTAGE-GATED CALCIUM CHANNELS AND USES THEREOF” (New York University, priority 2023, published 2025)

Test system: total Ca2+ currents
Assay: Whole-cell patch-clamp, total Ca2+ currents in small-to-medium DRG neurons
Assay type: cell-based, rat
Conditions: 20 μM overnight
Method: Recordings were obtained from acutely dissociated DRG neurons as described earlier (Bellampalli et al., 2019). Patch-clamp recordings were performed at room temperature (22-24° C.). Currents were recorded using an EPC 10 Amplifier-HEKA (HEKA Elektronik, Ludwigshafen, Germany) linked to a computer with Patchmaster software. DRG neurons were incubated overnight (˜16-24 hours) with 20 μM of CBD3063.
For total calcium current (ICa^2+) recordings, the external solution consisted of the following (in mM): 110 N-methyl-D-glucamine, 10 BaCl2, 30 TEA-Cl, 10 HEPES, 10 glucose, and 0.001 TTX (pH 7.29 adjusted with TEA-OH, and mOsm/L=310). Patch pipettes were filled with an internal solution containing (in mM): 150 CsCl2, 10 HEPES, 5 Mg-ATP, and 5 BAPTA, (pH 7.2 adjusted with CsOH, and mOsm/L-305). Peak Ca^2+ current was acquired by applying 200-millisecond voltage steps from −70 to +60 mV in 10-mV increments from a holding potential of −90 mV to obtain the current-voltage (I-V) relation. To measure the different subtypes of Ca^2+ channels, DRGs were treated with a Cav inhibitor cocktail omitting the inhibitor specific to the subtype being tested (e.g., to measure Cav2.2 currents, ω-conotoxin GVIA is omitted): Nifedipine (10 μM, L-type), ω-Conotoxin-GVIA (500 nM, […]) (Feng, et al., 2001), SNX482 (200 nM, R-type) (Newcomb et al., 1998), ω-agatoxin (200 nM, P/Q-type) (Mintz et al., 1992), TTA-P2 (1 μM, T-type) (Choe et al., 2011).
Normalization of currents to each cell's capacitance (pF) was performed to allow for collection of current density data. For I-V curves, functions were fitted to data using a non-linear least squares analysis. I-V curves were fitted using double Boltzmann functions:
where x is the pre-pulse potential, V1/2 is the mid-point potential, and k is the corresponding slope factor for single Boltzmann functions. Double Boltzmann fits were used to describe the shape of the curve, not to imply the existence of separate channel populations. Numbers 1 and 2 simply indicate first and second mid-points; a along with g are fitting parameters.
Activation curves were obtained from the I-V curves by dividing the peak current at each depolarizing step by the driving force according to the equation: G=I/(Vmem-Erev), where I is the peak current, Vmem is the membrane potential and Erev is the reversal potential. The conductance (G) was normalized against the maximum conductance (Gmax). For total and the different subtypes of Ca^2+ currents, steady-state inactivation (SSI) curves were obtained by applying an H-infinity protocol that consisted of 1.5-seconds conditioning pre-pulses from −100 to +30 mV in 10-mV increments followed by a 20-millisecond test pulse to +10 mV. For Na^+ currents, SSI curves were obtained by applying an H-infinity protocol that consisted of 1-second conditioning pre-pulses from −120 to +10 mV in 10-mV increments followed by a 200-millisecond test pulse to +10 mV. Inactivation curves were obtained by dividing the peak current recorded at the test pulse by the maximum current (Imax). Activation and SSI curves were fitted with the Boltzmann equation.

## CC(=O)N[C@@H]1CCCN(C(=O)NCCCNc2ccccn2)C1 [CBD3063, (3R)-3-acetamido-N-[3-(pyridin-2-ylamino)propyl]piperidine-1-carboxamide]
+10 mV (DMSO: −93.23±10.40)
  peak total calcium current density: −49.84±6.17 pA/pF
+10 mV, vs 0.1% DMSO
  reduction in Ca2+ currents at peak current density: ~46.54%
Mean ± SEM (n cells)
  Total Ca2+ currents, activation V1/2: 0.971 ± 2.338 (16) mV
  Total Ca2+ currents, activation k (slope factor): 11.004 ± 2.181 (16)
  Total Ca2+ currents, inactivation V1/2: −20.944 ± 3.182 (16) mV
  Total Ca2+ currents, inactivation k (slope factor): −14.132 ± 2.880 (16)
Normalized to 0.1% DMSO control (1.00±0.06)
  normalized peak total ICa2+ density: 0.51±0.04 ratio to DMSO control
